Reference: patent US12325710B2, “Substituted 1,2,3,4,5,6-hexahydroazepino[4,5-b]indoles for treating brain disorders” (priority 2019, dated 2025)
“Also recorded” adds a separate entry of the source.

Tests used:
[1] = system: rat embryonic cortical neurons; assay: Dendritogenesis (Sholl analysis) in cultured cortical neurons; type: cell-based; settings: 1 h treatment followed by 71 h growth; compared to vehicle (VEH)
Description: Embryonic rat cortical neurons were treated for a short period of time (1 h) followed by a suitable growth period (71 h) to measure the psychoplastogenic effects of the compounds described herein. […] Therefore, the effects of ibogalogs 8-17 on dendritic growth was assessed.
Dendritogenesis Experiments. For the dendritogenesis experiments conducted using cultured cortical neurons, timed pregnant Sprague Dawley rats were obtained from Charles River Laboratories (Wilmington, MA). Full culturing, staining, and analysis details were performed as previously described. (Dunlap, L. et al., 2019)

[2] = target: T1, hERG channels expressed in HEK293 cells (Homo sapiens, UniProt Q12809); type: cell-based; settings: relative to ibogaine
T1 construct: expressed in transfected cells
T1 sequence (Q12809 whole entry): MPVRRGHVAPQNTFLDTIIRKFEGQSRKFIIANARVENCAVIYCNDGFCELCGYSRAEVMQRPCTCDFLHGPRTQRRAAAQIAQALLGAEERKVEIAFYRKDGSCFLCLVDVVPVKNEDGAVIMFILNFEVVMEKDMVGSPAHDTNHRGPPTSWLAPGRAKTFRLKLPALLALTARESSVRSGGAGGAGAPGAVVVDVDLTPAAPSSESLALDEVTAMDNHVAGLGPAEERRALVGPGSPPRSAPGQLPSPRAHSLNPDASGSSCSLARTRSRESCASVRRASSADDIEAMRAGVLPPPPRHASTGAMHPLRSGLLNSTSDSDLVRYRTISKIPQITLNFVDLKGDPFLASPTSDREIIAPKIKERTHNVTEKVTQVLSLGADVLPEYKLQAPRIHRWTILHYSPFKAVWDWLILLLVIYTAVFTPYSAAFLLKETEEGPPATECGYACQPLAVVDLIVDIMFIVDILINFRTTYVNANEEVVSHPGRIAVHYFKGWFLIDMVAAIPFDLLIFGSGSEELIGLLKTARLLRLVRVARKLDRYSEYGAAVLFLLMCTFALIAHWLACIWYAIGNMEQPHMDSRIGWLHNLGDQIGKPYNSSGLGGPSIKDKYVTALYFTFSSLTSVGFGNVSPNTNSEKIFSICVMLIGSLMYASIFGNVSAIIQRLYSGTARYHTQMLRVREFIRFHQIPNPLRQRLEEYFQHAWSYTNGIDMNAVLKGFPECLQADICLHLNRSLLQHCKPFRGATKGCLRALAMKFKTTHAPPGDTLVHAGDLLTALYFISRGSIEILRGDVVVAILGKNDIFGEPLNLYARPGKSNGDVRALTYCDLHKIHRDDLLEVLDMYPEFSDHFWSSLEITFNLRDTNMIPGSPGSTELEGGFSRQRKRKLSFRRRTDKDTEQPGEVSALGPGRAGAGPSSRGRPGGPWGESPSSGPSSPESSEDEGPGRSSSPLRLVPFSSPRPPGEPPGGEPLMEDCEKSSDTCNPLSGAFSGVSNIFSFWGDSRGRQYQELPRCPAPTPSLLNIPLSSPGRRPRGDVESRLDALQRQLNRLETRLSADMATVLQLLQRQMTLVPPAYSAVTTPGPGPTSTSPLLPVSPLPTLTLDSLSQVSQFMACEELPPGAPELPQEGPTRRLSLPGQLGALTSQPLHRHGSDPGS
Description: hERG Inhibition Studies. All experiments were conducted manually using an EPC-10 amplifier (HEKA, Lambrecht/Pfalz, Germany) at room temperature in the whole-cell mode of the patch-clamp technique. HEK-293 cells stably expressing hKv11.1 (hERG) under G418 selection were a generous gift from Craig January (University of Wisconsin, Madison). Cells were cultured in DMEM containing 10% fetal bovine serum, 2 mM glutamine, 1 mM sodium pyruvate, 100 U/mL penicillin, 100 μg/mL streptomycin, and […]. Before experiments, cells were cultured to 60-80% confluency and lifted using TrypLE and plated onto poly-L-lysine-coated coverslips. Patch pipettes were pulled from soda lime glass (micro-hematocrit tubes) and had resistances of 2-4 MO. For the external solution, normal sodium Ringer was used (160 mM NaCl, 4.5 mM KCl, 2 mM CaCl2, 1 mM MgCl2, 10 mM HEPES, pH 7.4 and 290-310 mOsm). The internal solution used was potassium fluoride with ATP (160 mM KF, 2 mM MgCl2, 10 mM EGTA, 10 mM HEPES, 4 mM NaATP, pH=7.2 and 300-320 mOsm). A 2-step pulse (applied every 10 sec) from −80 mV first to 40 mV for 2 sec and then to −60 mV for 4 sec, was used to elicit hERG currents. The percent reduction of tail current amplitude by the drugs was determined and data are shown as mean+/−SD. For all experiments, solutions of the drugs were prepared fresh from 10 mM stock solutions in DMSO. […]

larval zebrafish [3] = assay: Larval zebrafish movement activity during a battery of light and acoustic stimuli
Source text: Stimuli applied over time are indicated under the heatmaps. Colors indicate bright LED light of respective colors, black traces represent the waveforms of acoustic stimuli, and gray vertical lines indicate physical tapping as secondary acoustic stimuli.
Response is […] proportional to classification accuracy; 0-20% indicates no ability and 100% indicates perfect classification. […] The solid line denotes the median and the shading denotes a 95th percentile confidence interval calculated by bootstrap. N=8 wells/condition (64 animals/condition).

zebrafish = assay: Zebrafish developmental toxicity assay; type: in vivo; settings: 100 μM; 2 and 5 dpf
human 5-HT2A receptors = human 5-HT2A receptors (Homo sapiens, UniProt P28223); assay: 5-HT2A Gq-mediated calcium flux functional assay (human); type: cell-based
human 5-HT2A receptors, sequence (P28223 whole entry, canonical isoform): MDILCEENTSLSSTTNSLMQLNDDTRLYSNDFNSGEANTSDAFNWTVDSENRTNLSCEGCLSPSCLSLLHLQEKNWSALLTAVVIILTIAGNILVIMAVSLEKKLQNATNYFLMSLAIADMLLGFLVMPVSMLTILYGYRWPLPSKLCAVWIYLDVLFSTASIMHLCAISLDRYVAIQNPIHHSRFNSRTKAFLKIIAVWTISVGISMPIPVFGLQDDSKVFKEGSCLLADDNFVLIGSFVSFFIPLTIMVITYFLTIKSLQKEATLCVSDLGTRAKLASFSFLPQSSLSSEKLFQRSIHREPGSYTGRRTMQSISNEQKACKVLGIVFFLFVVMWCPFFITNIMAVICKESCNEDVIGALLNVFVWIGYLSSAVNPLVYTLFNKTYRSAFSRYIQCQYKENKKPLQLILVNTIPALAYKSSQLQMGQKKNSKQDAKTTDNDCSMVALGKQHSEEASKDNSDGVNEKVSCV
Description: (§1) Serotonin and Opioid Receptor Functional Assays. Functional assay screens at 5-HT and opioid receptors were performed in parallel using the same compound dilutions and 384-well format high-throughput assay platforms. Assays assessed activity at all human isoforms of the receptors, except where noted for the mouse 5-HT2A receptor. Receptor constructs in pcDNA vectors were generated from the Presto-Tango GPCR library with minor modifications. All compounds were serially diluted in drug buffer (HBSS, 20 mM HEPES, pH 7.4 supplemented with 0.1% bovine serum albumin and 0.01% ascorbic acid) and dispensed into 384-well assay plates using a FLIPR^TETRA (Molecular Devices). Every plate included a positive control such as 5-HT (for all 5-HT receptors), DADLE (DOR), salvinorin A (KOR), and DAMGO (MOR). For measurements of 5-HT2A, 5-HT2B, and 5-HT2C Gq-mediated calcium flux function, HEK Flp-In 293 T-Rex stable cell lines (Invitrogen) were loaded with Fluo-4 dye for one hour, stimulated with compounds and read for baseline (0-10 seconds) and peak fold-over-basal fluorescence (5 minutes) at 25° C. on the FLIPR^TETRA. For measurement of 5-HT6 and 5-HT7a functional assays, Gs-mediated cAMP accumulation was detected using the split-luciferase GloSensor assay in HEKT cells measuring luminescence on a Microbeta Trilux (Perkin Elmer) with a 15 min drug incubation at 25° C. […]

mouse 5-HT2A receptors = mouse 5-HT2A receptors (Mus musculus, UniProt P35363); assay: 5-HT2A Gq-mediated calcium flux functional assay (mouse); type: cell-based
mouse 5-HT2A receptors, sequence (P35363 whole entry): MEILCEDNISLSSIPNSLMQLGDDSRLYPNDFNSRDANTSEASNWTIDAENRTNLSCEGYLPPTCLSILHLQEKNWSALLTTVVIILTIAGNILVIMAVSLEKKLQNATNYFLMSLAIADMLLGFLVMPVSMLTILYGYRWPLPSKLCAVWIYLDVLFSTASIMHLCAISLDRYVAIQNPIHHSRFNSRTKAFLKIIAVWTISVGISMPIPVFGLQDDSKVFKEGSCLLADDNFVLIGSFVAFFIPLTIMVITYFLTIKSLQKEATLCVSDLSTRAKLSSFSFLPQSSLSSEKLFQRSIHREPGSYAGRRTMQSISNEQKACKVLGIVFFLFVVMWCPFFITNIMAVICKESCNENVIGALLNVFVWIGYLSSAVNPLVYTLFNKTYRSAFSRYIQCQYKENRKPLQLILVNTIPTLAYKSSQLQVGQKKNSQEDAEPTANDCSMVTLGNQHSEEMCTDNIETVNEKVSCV
Description: as §1

5-HT2B receptors = 5-HT2B receptors (Homo sapiens, UniProt P41595); assay: 5-HT2B Gq-mediated calcium flux functional assay; type: cell-based
5-HT2B receptors, sequence (P41595 whole entry, canonical isoform): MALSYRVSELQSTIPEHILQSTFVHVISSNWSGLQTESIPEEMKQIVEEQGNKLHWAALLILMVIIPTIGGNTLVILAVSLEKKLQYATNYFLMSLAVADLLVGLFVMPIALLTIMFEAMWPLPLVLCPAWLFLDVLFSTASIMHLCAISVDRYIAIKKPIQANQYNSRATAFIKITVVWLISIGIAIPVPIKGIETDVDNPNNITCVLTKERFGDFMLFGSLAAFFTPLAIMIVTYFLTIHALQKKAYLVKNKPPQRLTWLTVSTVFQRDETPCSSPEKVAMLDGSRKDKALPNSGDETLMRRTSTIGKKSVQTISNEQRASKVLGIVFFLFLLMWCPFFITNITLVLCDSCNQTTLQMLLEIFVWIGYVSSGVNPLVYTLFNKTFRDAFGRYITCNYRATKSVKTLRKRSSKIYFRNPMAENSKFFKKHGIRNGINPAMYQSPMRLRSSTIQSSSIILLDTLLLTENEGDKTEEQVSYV
Description: Serotonin and Opioid Receptor Functional Assays. Functional assay screens at 5-HT and opioid receptors were performed in parallel using the same compound dilutions and 384-well format high-throughput assay platforms. Assays assessed activity at all human isoforms of the receptors, except where noted for the mouse 5-HT2A receptor. Receptor constructs in pcDNA vectors were generated from the Presto-Tango GPCR library with minor modifications. All compounds were serially diluted in drug buffer (HBSS, 20 mM HEPES, pH 7.4 supplemented with 0.1% bovine serum albumin and 0.01% ascorbic acid) and dispensed into 384-well assay plates using a FLIPR^TETRA (Molecular Devices). Every plate included a positive control such as 5-HT (for all 5-HT receptors), DADLE (DOR), salvinorin A (KOR), and DAMGO (MOR). For measurements of 5-HT2A, 5-HT2B, and 5-HT2C Gq-mediated calcium flux function, HEK Flp-In 293 T-Rex stable cell lines (Invitrogen) were loaded with Fluo-4 dye for one hour, stimulated with compounds and read for baseline (0-10 seconds) and peak fold-over-basal fluorescence (5 minutes) at 25° C. on the FLIPR^TETRA. For measurement of 5-HT6 and 5-HT7a functional assays, Gs-mediated cAMP accumulation was detected using the split-luciferase GloSensor assay in HEKT cells measuring luminescence on a Microbeta Trilux (Perkin Elmer) with a 15 min drug incubation at 25° C. For 5-HT1A, 5-HT1B, 5-HT1F, MOR, KOR, and DOR functional assays, Gi/o-mediated cAMP inhibition was measured using the split-luciferase GloSensor assay in HEKT cells, conducted similarly as above, but in combination with either 0.3 μM isoproterenol (5-HT1A, 5-HT1B, 5-HT1F) or 1 μM forskolin (MOR, KOR, and DOR) to stimulate endogenous cAMP accumulation. For measurement of 5-HT1D, 5-HT1E, 5-HT4, and 5-HT5A functional assays, β-arrestin2 recruitment was measured by the Tango assay utilizing HTLA cells expressing TEV fused-β-arrestin2, as described previously with minor modifications. […]

[4] = system: opioid receptors (MOR, KOR, DOR); assay: Opioid receptor functional assays (Gi/o-mediated cAMP inhibition); type: cell-based, human
Description: as §1

5-HT1A = target: T2, 5-HT1A (Homo sapiens, UniProt P08908); assay: 5-HT1A functional assay (Gi/o-mediated cAMP inhibition); type: cell-based
T2 construct: expressed in transfected cells; host or cells: HEKT cells (GloSensor cAMP assay)
T2 sequence (P08908 1-422): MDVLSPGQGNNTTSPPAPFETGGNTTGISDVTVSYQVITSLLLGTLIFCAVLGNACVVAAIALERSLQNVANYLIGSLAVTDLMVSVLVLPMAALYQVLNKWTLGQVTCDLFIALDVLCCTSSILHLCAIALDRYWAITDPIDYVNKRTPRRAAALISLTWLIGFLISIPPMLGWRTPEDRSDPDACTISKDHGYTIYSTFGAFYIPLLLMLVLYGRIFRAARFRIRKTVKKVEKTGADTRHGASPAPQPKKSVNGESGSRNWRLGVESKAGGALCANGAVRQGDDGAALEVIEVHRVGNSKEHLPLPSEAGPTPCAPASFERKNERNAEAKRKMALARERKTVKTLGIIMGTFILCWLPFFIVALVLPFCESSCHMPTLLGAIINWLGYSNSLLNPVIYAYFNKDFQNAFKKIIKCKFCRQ
Description: as §1

5-HT2C = target: T3, 5-HT2C (Homo sapiens, UniProt P28335); assay: 5-HT2C Gq-mediated calcium flux functional assay; type: cell-based
T3 sequence (P28335 33-458): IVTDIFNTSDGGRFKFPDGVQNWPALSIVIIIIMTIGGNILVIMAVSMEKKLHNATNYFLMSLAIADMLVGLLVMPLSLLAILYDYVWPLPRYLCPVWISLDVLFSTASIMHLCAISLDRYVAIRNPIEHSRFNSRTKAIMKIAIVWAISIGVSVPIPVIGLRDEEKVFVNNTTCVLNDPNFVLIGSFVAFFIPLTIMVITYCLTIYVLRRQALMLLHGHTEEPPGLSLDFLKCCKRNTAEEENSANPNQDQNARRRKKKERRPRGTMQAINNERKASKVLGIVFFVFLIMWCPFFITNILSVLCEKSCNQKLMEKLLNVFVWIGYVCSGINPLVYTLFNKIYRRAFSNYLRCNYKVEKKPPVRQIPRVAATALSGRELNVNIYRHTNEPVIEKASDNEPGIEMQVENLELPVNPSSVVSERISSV
Description: as §1

[5] = Solubility in 0.9% saline; settings: saline or isotonic
C57BL/6J mice = assay: Head-twitch response (HTR) assay; settings: intraperitoneal; fumarate salts; 5-MeO-DMT 10 mg/kg as positive control
larval zebrafish [6] = assay: Heart rate and arrhythmia in immobilized larval zebrafish
C57/BL6J mice = assay: Forced swim test (FST); type: in vivo, mouse; settings: 24 h after drug administration; TBG 50 mg/kg, ketamine 3 mg/kg i.p.
Description: Forced Swim Test (FST). Male C57/BL6J mice (9-10 weeks old at time of experiment, n=10 per condition) were obtained from the Jackson Lab and housed 4-5 mice/cage in a UCD vivarium following an IACUC approved protocol. After 1 week in the vivarium each mouse was handled for approximately 1 minute by a experimenter for 3 consecutive days leading up to the first FST. All experiments were carried out by the same experimenter who performed handling. During the FST, mice underwent a 6 min swim session in a clear Plexiglas cylinder 40 cm tall, 20 cm in diameter, and filled with 30 cm of 24±1° C. water. Fresh water was used for every mouse. After handling and habituation to the experimenter, drug-naïve mice first underwent a pretest swim to more reliably induce a depressive phenotype in the subsequent FST sessions. Immobility scores for all mice were determined after the pre-test and mice were randomly assigned to treatment groups to generate groups with similar average immobility scores to be used for the following two FST sessions. […] Experiments were video-recorded and manually scored offline. Immobility time—defined as passive floating or remaining motionless with no activity other than that needed to keep the mouse's head above water—was scored for the last 4 min of the 6 min trial.

Structure (SMILES)	psychoplastogenic effect on dendritic growth (Sholl analysis) [1]	fold less potent than ibogaine at hERG [2]	behavioral phenotype at highest concentration versus lethal control (larval zebrafish [3]; 200 μM)	behavioral phenotype with increasing concentration versus vehicle and lethal control (eugenol, 100 μM) (larval zebrafish [3]; 1 h treatment, concentration-response)	machine learning classification of movement responses (larval zebrafish [3]; highest concentrations (200 μM))	malformations, mortality, non-viable fish (zebrafish)	agonist activity at human 5-HT2A receptors (human 5-HT2A receptors)	agonist activity at mouse 5-HT2A receptors (mouse 5-HT2A receptors)	activity mode at 5-HT2B receptors (5-HT2B receptors)	opioid agonist activity [4]	5-HT1A agonist activity compared to 5-MeO-DMT (5-HT1A)	5-HT2C agonist activity compared to 5-MeO-DMT (5-HT2C)	solubility [5] [mg/mL]	hallucinogenic potential (head-twitch response) (C57BL/6J mice)	heart rate (bradycardia) (larval zebrafish [6])	likelihood of arrhythmias (ratio of atrium to ventricle BPM) (larval zebrafish [6])	immobility in FST (C57/BL6J mice)
COc1ccc2[nH]c3c(c2c1)CCN(C)CC3 [IBG]	performed comparably to ibogaine	approximately 10 fold	did not produce this phenotype	do not produce movement responses in larval zebrafish similar to a lethal concentration of eugenol	more similar to vehicle controls than to ibogaine, noribogaine, or lethal controls	significantly fewer non-viable fish than ibogaine or noribogaine treatments	potent agonist activity	potent agonist activity	antagonists	weak or no opioid agonist activity	weaker 5-HT1A and 5-HT2C agonist activity	weaker 5-HT1A and 5-HT2C agonist activity	≥ 40	significantly reduced hallucinogenic potential	Neither IBG nor TBG induced these undesirable phenotypes; also recorded: do not induce bradycardia	Neither IBG nor TBG induced these undesirable phenotypes	
CNC1(c2ccccc2Cl)CCCCC1=O (centres unmarked) [ketamine, reference compound]																	significantly reduced immobility
